Measured values: patent US20110009433A1, “BICYCLIC PYRROLE COMPOUND” (DAINIPPON SUMITOMO PHARMA CO., LTD., priority 2008, published 2011)
Where a name gives a salt, the structure may show the parent alone.

Experiments:
[1] = Hygroscopicity measured at room temperature (weight change under moisture adsorption/desorption); type: physicochemical; conditions: humidity of 0 to 90%
Description: (§1) The hygroscopicity was measured at room temperature for each of the crystalline monohydrochloride 0.5 hydrate of Example 1 (compound A) produced by the method of the present invention and the amorphous powders of the compound of Example 6 of International Publication No. 2006/068163 (compound B) produced by a conventional technique.

[2] = Storage stability under a light source: residual rate by HPLC and appearance after two week storage; type: physicochemical; conditions: for residual rate: HPLC area percentage; for change in color after the stability test (in words) / stability under a light source (in words): both 1000 lux and 4000 lux
Description: as §1, with “residual rates after two week storage under a light source of 1000 lux and 4000 lux were” for “hygroscopicity was”, “measured” for “measured at room temperature”
The residual rate (%) of a compound was determined by the area percentage of the residual rate of the compound measured using high performance liquid chromatography (HPLC). The HPLC measurement conditions were as follows:
Column: CAPCELL PAK C18 UG120 (4.6 mm I.D.×250 mm)
Mobile phase (A/B): 10 mM sodium phosphate buffer (pH=6.9)/CH3CN
Mobile phase (ratio of B): 30% (0 min) →90% (45 min)
Column temperature: 40° C.

human recombinant DPP IV = target: T1, human recombinant DPP IV (Homo sapiens, UniProt P27487); test: In vitro DPP-IV inhibitory action measurement test; type: biochemical; conditions: preincubated 100 to 110 minutes, substrate Gly-Pro-MCA 40 μmol/L
T1 construct: purchased R&D system
T1 sequence (P27487 whole entry): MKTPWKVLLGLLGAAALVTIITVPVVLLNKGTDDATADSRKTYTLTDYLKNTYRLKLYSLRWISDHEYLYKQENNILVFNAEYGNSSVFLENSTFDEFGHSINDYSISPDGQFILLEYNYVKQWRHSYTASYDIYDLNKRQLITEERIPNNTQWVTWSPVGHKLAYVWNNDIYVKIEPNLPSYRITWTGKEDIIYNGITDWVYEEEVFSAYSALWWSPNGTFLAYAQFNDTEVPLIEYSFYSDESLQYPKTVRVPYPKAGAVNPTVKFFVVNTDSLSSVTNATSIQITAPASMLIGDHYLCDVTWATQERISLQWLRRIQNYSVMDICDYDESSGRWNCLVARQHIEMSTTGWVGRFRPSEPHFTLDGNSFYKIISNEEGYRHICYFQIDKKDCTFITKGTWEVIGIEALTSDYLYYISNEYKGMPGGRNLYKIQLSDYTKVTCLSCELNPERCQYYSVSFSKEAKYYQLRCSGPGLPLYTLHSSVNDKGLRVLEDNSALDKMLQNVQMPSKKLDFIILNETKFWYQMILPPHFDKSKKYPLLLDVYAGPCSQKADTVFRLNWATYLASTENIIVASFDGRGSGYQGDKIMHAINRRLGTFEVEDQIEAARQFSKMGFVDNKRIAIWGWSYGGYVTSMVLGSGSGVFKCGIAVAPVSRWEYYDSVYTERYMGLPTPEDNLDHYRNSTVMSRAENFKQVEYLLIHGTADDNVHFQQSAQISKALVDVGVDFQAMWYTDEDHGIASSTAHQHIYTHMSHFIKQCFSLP
Description: Solutions containing test compounds were prepared at various concentrations and added to microassay plates. Further, human recombinant DPP IV (R&D system) was added and preincubated at room temperature for 100 to 110 minutes, followed by adding a substrate (Glycyl-L-proline 4-methylcoumaryl-7-amide, Peptide Institute, Inc.; final concentration: 40 μmol/L) to start the enzymatic reaction. The enzymatic reaction rate was determined by measuring the fluorescence change with time for 10 minutes after 10 minutes elapsed from the start of addition of the substrate using a fluorescence plate reader (excitation wavelength: 380 nm, measurement wavelength: 460 nm). From the results obtained, the compound concentration showing 50% inhibition was calculated as an IC50 value.

[3] = two week storage, 1000 Lux, 11% RH
[4] = two week storage, 4000 Lux, 10% RH

Structure (SMILES)	melting point [°C]	change in the weight (hygroscopicity) [1]	appearance (color) ([2]; Initial)	residual rate ([2]; Initial) [%]	change in color after the stability test (in words) ([2]; two week storage)	stability under a light source (in words) ([2]; two week storage)	appearance (color) [2, 3]	residual rate [2, 3] [%]	appearance (color) [2, 4]	residual rate [2, 4] [%]	IC50 (human recombinant DPP IV) [nM]
Cn1c(=O)c2c(cc(N3CCC[C@@H](N)C3)n2Cc2cc(F)ccc2Cl)n(C)c1=O (as salt: hydrochloride) (hydrate or solvate) [Compound A, 6-[(3R)-3-aminopiperidin-1-yl]-5-(2-chloro-5-fluorobenzyl)-1,3-dimethyl-1H-pyrrolo[3,2-d]pyrimidine-2,4(3H,5H)-dione monohydrochloride hemihydrate]	205 to 208										
Cn1c(=O)c2c(cc(N3CCC[C@@H](N)C3)n2Cc2cc(F)ccc2Cl)n(C)c1=O [Compound A, 6-[(3R)-3-aminopiperidin-1-yl]-5-(2-chloro-5-fluorobenzyl)-1,3-dimethyl-1H-pyrrolo[3,2-d]pyrimidine-2,4(3H,5H)-dione monohydrochloride hemihydrate]		no change in the weight	Pale yellow	100.0	no change in color	extremely high stability	Pale yellow	100.0	Pale yellow	99.9	0.71
Cl.Cn1c(=O)c2c(cc(N3CCC[C@@H](N)C3)n2Cc2cc(F)ccc2Cl)n(C)c1=O [Compound B, reference compound]		−5.0 to 9.0%	Pale yellow	100.0	apparently changed in color to yellow	low stability	Yellow	99.2	Yellow	97.4	
